Assay results from patent publication US7985876B2, “Substituted dibenzoic acid derivatives and use thereof” (Bayer Schering Pharma Aktiengesellschaft, priority 2007, dated 2011).

Tests used:
[1] = test system: saphenous artery rings; test: Vasorelaxant effect in vitro (phenylephrine-contracted artery rings); assay type: cell-based, Rabbits; conditions: Oryctolagus cuniculus; rabbit saphenous artery rings, contraction induced by phenylephrine
Protocol: Rabbits are anesthetized and sacrificed by intravenous injection of thiopental sodium (about 50 mg/kg) and exsanguinated. The saphenous artery is removed and divided into rings 3 mm wide. The rings are mounted singly on in each case a pair of triangular hooks open at the end and made of 0.3 mm-thick special wire (Remanium®). Each ring is placed under an initial tension in 5 ml organ baths with Krebs-Henseleit solution which is at 37° C., is gassed with 95% O2/5% CO2 and has the following composition: NaCl 119 mM; KCl 4.8 mM; CaCl2×2H2O 1 mM; MgSO4×7H2O 1.4 mM; KH2PO4 1.2 mM; NaHCO3 25 mM; glucose 10 mM; bovine serum albumin 0.001%. The force of contraction is detected with Statham UC2 cells, amplified and digitized via A/D converters (DAS-1802 HC, Keithley Instruments, Munich) and recorded in parallel on chart recorders. Contractions are induced by addition of phenylephrine.
After several (generally 4) control cycles, the substance to be investigated is added in each further run in increasing dosage, and the height of the contraction achieved under the influence of the test substance is compared with the height of the contraction reached in the last preceding run. The concentration necessary to reduce the contraction reached in the preceding control by 50% is calculated from this (IC50). The standard application volume is 5 μl. […]

[2] = biological target: T1, Heme-containing sGC (recombinant soluble guanylate cyclase) (Rattus norvegicus, UniProt P20595); test: Stimulation of recombinant soluble guanylate cyclase (sGC) in vitro, heme-containing enzyme; assay type: biochemical
T1 construct: made in house
T1 sequence (P20595 1-619): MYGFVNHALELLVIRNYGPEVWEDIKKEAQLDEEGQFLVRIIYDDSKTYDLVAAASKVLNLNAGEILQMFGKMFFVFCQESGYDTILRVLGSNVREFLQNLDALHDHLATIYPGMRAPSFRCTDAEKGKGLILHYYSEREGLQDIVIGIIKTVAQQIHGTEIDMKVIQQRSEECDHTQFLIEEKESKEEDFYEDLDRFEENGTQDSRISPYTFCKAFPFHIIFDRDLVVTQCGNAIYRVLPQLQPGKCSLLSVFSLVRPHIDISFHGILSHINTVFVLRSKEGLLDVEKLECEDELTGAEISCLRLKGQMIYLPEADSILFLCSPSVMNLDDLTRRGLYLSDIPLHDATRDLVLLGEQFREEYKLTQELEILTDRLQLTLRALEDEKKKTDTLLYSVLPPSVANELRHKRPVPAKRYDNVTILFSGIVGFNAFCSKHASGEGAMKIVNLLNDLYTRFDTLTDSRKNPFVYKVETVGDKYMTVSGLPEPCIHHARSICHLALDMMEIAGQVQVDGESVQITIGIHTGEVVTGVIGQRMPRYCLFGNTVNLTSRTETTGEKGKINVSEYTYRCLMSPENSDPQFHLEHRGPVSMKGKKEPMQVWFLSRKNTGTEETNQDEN
T1 sequence (P19686 1-690 partner): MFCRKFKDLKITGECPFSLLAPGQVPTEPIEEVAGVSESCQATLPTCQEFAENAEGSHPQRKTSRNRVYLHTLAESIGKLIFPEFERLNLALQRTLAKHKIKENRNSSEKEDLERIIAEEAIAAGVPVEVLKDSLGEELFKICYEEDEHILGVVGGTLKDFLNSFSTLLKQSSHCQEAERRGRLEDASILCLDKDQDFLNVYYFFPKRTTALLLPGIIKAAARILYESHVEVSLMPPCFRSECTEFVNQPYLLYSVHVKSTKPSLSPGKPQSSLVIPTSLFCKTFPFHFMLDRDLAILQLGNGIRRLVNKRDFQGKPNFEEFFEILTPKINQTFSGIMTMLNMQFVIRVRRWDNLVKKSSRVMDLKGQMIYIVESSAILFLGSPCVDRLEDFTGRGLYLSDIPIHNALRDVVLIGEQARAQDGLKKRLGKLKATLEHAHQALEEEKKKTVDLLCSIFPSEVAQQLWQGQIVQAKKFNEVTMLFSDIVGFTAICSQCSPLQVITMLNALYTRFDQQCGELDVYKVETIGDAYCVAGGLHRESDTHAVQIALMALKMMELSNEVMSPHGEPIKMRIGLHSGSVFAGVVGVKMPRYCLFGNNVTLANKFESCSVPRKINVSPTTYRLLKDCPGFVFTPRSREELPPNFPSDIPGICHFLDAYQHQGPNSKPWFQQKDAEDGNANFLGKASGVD
Excerpt: Hoenicka, E. M. Becker, H. Apeler, T. Sirichoke, H. Schroeder, R. Gerzer and J.-P. Stasch, “Purified soluble guanylyl cyclase expressed in a baculovirus/Sf9 system: Stimulation by YC-1, nitric oxide, and carbon oxide”, J. Mol. Med. 77 (1999), 14-23. The heme-free guanylate cyclase is obtained by adding Tween 20 to the sample buffer (0.5% in the final concentration).
(§1) The activation of sGC by a test substance is reported as n-fold stimulation of the basal activity.

[3] = biological target: T2, Heme-free sGC (recombinant soluble guanylate cyclase) (Rattus norvegicus, UniProt P20595); test: Stimulation of recombinant soluble guanylate cyclase (sGC) in vitro, heme-free enzyme; assay type: biochemical
T2 construct: made in house
T2 sequence (P20595 1-619): T1 sequence (P20595 1-619)
T2 sequence (P19686 1-690 partner): T1 sequence (P19686 1-690 partner)
Protocol: Investigations on the stimulation of recombinant soluble guanylate cyclase (sGC) by the compounds according to the invention with and without sodium nitroprusside, and with and without the heme-dependent sGC inhibitor 1H-1,2,4-oxadiazole-(4,3a)-quinoxalin-1-one (ODQ) are carried out by the method described in detail in the following reference: M. Hoenicka, E. M. Becker, H. Apeler, T. Sirichoke, H. Schroeder, R. Gerzer and J.-P. Stasch, “Purified soluble guanylyl cyclase expressed in a baculovirus/Sf9 system: Stimulation by YC-1, nitric oxide, and […]”, J. Mol. Med. 77 (1999), 14-23. The heme-free guanylate cyclase is obtained by adding Tween 20 to the sample buffer (0.5% in the final concentration).
as §1

IC50 [1]: 250 nM
Stimulation (n-fold) heme-containing sGC, +0.1 μM DEA/NO ([2]; 0.01 μM Example 1): 24.1 n-fold
Stimulation (n-fold) heme-containing sGC, +10 μM ODQ ([2]; 0.01 μM Example 1): 7.0 n-fold
Stimulation (n-fold) heme-containing sGC, basal ([2]; 0.01 μM Example 1): 1.3 n-fold
Stimulation (n-fold) heme-containing sGC, +0.1 μM DEA/NO ([2]; 0.1 μM Example 1): 25.5 n-fold
Stimulation (n-fold) heme-containing sGC, +10 μM ODQ ([2]; 0.1 μM Example 1): 16.2 n-fold
Stimulation (n-fold) heme-containing sGC, basal ([2]; 0.1 μM Example 1): 1.9 n-fold
Stimulation (n-fold) heme-containing sGC, +0.1 μM DEA/NO ([2]; 1 μM Example 1): 33.4 n-fold
Stimulation (n-fold) heme-containing sGC, +10 μM ODQ ([2]; 1 μM Example 1): 60.6 n-fold
Stimulation (n-fold) heme-containing sGC, basal ([2]; 1 μM Example 1): 6.4 n-fold
Stimulation (n-fold) heme-containing sGC, +0.1 μM DEA/NO ([2]; 10 μM Example 1): 41.5 n-fold
Stimulation (n-fold) heme-containing sGC, +10 μM ODQ ([2]; 10 μM Example 1): 92.2 n-fold
Stimulation (n-fold) heme-containing sGC, basal ([2]; 10 μM Example 1): 11.0 n-fold
Synergy with the NO donor DEA/NO on sGC stimulation ([2]; combination of Example 1 and DEA/NO): no synergistic effect
Stimulation (n-fold) heme-free sGC, basal ([3]; 0.01 μM Example 1, heme-free by 0.5% Tween 20): 1.0 n-fold
Stimulation (n-fold) heme-free sGC, basal ([3]; 0.1 μM Example 1, heme-free by 0.5% Tween 20): 2.3 n-fold
Stimulation (n-fold) heme-free sGC, basal ([3]; 1 μM Example 1, heme-free by 0.5% Tween 20): 9.1 n-fold
Stimulation (n-fold) heme-free sGC, basal ([3]; 10 μM Example 1, heme-free by 0.5% Tween 20): 16.7 n-fold
Structure (SMILES): O=C(O)c1ccc(CCC(/C=C/c2cc(F)ccc2OCc2ccc(C(F)(F)F)cc2)CCc2ccc(C(=O)O)cc2)cc1 [Example 1, 4-[(4E)-3-[2-(4-Carboxyphenyl)ethyl]-5-(5-fluoro-2-{[4-(trifluoromethyl)benzyl]oxy}phenyl)pent-4-en-1-yl]benzoic acid]
